Data taken from ChEMBL document CHEMBL1158890, “Complement-inhibiting iridoids from Morinda morindoides” (J Nat Prod, 2003).
Calls of active or inactive are those of the source. No cut-off for these calls is given here.

Legend:
[1] = Inhibition of classical complement pathway activation at 6.6 uM assessed as complement modulation test
[2] = Inhibition of classical complement pathway activation at 4 uM assessed as complement modulation test
[3] = Inhibition of alternative complement pathway activation by complement modulation test
[4] = Inhibition of classical complement pathway activation at 4 uM in presence of beta glucosidase by complement modulation test
[5] = Inhibition of classical complement pathway activation by complement modulation test

SMILES | inhibition [1] | inhibition [2] | Activity [3] | inhibition [4] | IC50 [5]
COC(=O)C1=CO[C@@H](O)[C@@H]2C(CO)=CC[C@H]12 | 75.3% | – | – | – | –
COC(=O)C1=CO[C@@H](O[C@@H]2O[C@H](CO)[C@@H](O)[C@H](O)[C@H]2O)[C@@H]2C(CO)=CC[C@H]12 | – | 23% | – | – | –
COC(=O)C1=CO[C@H](O[C@@H]2O[C@H](CO)[C@@H](O)[C@H](O)[C@H]2O)[C@H]2[C@@H]1[C@@H]1O[C@@H]1[C@@]21C=C(C(O)c2ccc(O)c(OC)c2)C(=O)O1 (stereo partly specified) | – | – | inactive | – | –
O=C(O)C1=CO[C@@H](O[C@@H]2O[C@H](CO)[C@@H](O)[C@H](O)[C@H]2O)[C@@H]2C(CO)=CC[C@H]12 | – | 14.3% | – | 87.3% | –
OCC1=C[C@@H](O)[C@@H]2C=CO[C@@H](O[C@@H]3O[C@H](CO)[C@@H](O)[C@H](O)[C@H]3O)[C@H]12 | – | 21.7% | – | 89.3% | –
COC(=O)C1=CO[C@H](O[C@@H]2O[C@H](COC(C)=O)[C@@H](O)[C@H](O)[C@H]2O)[C@H]2[C@@H]1C=C[C@@]21C=C(C(O)c2ccc(O)cc2)C(=O)O1 (stereo partly specified) [ACETYLGAERTNEROSIDE] | – | – | inactive | – | 71 µM
COC(=O)C1=CO[C@H](O[C@@H]2O[C@H](CO)[C@@H](O)[C@H](O)[C@H]2O)[C@H]2[C@@H]1C=C[C@@]21C=C(C(=O)c2ccc(O)cc2)C(=O)O1 [DEHYDROGAERTNEROSIDE] | – | – | inactive | – | > 400 µM
COC(=O)C1=CO[C@@H](O[C@@H]2O[C@H](CO)[C@@H](O)[C@H](O)[C@H]2O)[C@H]2[C@@H]1C=C[C@@]21C=C(C(=O)c2ccc(O)c(OC)c2)C(=O)O1 [DEHYDROMETHOXYGAERTNEROSIDE] | – | – | inactive | – | > 400 µM
COC(=O)C1=CO[C@H](O[C@@H]2O[C@H](CO)[C@@H](O)[C@H](O)[C@H]2O)[C@H]2[C@@H]1[C@@H]1O[C@@H]1[C@@]21C=C(C(O)c2ccc(O)cc2)C(=O)O1 (stereo partly specified) [EPOXYGAERTNEROSIDE] | – | – | inactive | – | > 1000 µM
O=C(O)C1=CO[C@H](O[C@@H]2O[C@H](CO)[C@@H](O)[C@H](O)[C@H]2O)[C@H]2[C@@H]1C=C[C@@]21C=C(C(O)c2ccc(O)cc2)C(=O)O1 (stereo partly specified) [GAERTNERIC ACID] | – | – | inactive | – | 69 µM
COC(=O)C1=CO[C@H](O[C@@H]2O[C@H](CO)[C@@H](O)[C@H](O)[C@H]2O)[C@H]2[C@@H]1C=C[C@@]21C=C(C(O)c2ccc(O)cc2)C(=O)O1 (stereo partly specified) [GAERTNEROSIDE] | – | – | inactive | – | 58 µM
COC(=O)C1=CO[C@H](O[C@@H]2O[C@H](CO)[C@@H](O)[C@H](O)[C@H]2O)[C@H]2[C@@H]1C=C[C@@]21C=C(C(O)c2ccc(O)c(OC)c2)C(=O)O1 (stereo partly specified) [METHOXYGAERTNEROSIDE] | – | – | inactive | – | > 1000 µM
